Results as given in US20090023801A1, “INHIBITORS OF BETA AMYLOID PRODUCTION” (Wyeth, priority 2007, published 2009).

Tests used:
Aβ40 = experiment: Aβ-lowering MSD electrochemiluminescent assay of conditioned media from CHO cells expressing human APP (Aβ40); assay type: cell-based; conditions: MSD electrochemiluminescent assay, hAPP-REPNL751 CHO cells; read-out: Aβ40 EC50 for inhibition of Aβ40
Method: (§1) The activity of compounds in lowering the generation of Aβ40 and Aβ42, the most abundant forms of beta amyloid, from APP (amyloid precursor protein) was measured in an electrochemiluminescent (ECL) assay of conditioned media from chinese hamster ovary (CHO) cells stably expressing the human amyloid precursor protein (APP) reporter construct, hAPP-REPNL751 (Sughir, R. et al.; J. Biolog. Chem (1992) 267: 25602-25608). Aβ peptides were secreted at high levels into cell culture media by cells carrying the human APP transgene; compounds were tested for their capacity to modulate this production. The Aβ peptide in the conditioned medium was quantitated by a sandwich immunoassay with the MSD ECL detection system. Cell metabolism was measured using a 3-(4,5-dimethylthiazol-2-yl)-5-(3-carboxymethoxypheny)-2-(4-sulfophenyl)-2H-tetrazolium, inner salt (MTS) salt kit (which measures the mitochondrial activity of cells by the bioreduction of Owen's reagent). This assay consists of the following protocol:
(§2) 1. hAPP-REPNL751CHO cells were seeded into 96 well plates and incubated until about 60-70% confluence.
(§3) 2. Medium was removed, cells were washed, and fresh serum-free medium (Ultraculture) was put on cells.
(§4) 3. Compounds were diluted and then added to the cell medium.
(§5) 4. Cells were incubated, with compounds, for indicated times.
(§6) 5. Streptavidin coated Meso Scale Discover (MSD) plates (MSD standard MULTI-ARRAY® 96 plate, cat.# P11SA-1) were washed […] with TTBS (Tris-buffered saline, the TWEEN® 20 reagent).
(§7) 6. 20 μL conditioned medium were removed from the cells and added to the TTBS prewashed MSD plates.
(§8) 7. Standard curve dilutions of synthetic Aβ40 and Aβ42 were prepared and added to the MSD plates.
(§9) 8. A reagent mix was prepared in 1% MSD Blocker A (appropriate concentration of biotinylated 6E10 antibody, detection antibodies to Aβ40, Aβ42, and MSD ruthinylated tag antibody).
(§10) 9. 20 μL reagent mix was distributed to sample plate.
(§11) 10. Plates were incubated with shaking overnight at 4° C.
(§12) 11. Plates were washed 3× with TTBS.
(§13) 12. 150 μL read buffer was added per well (MSD® Read Buffer T, cat#R92TC-2, made 1× with distilled water).
(§14) 13. Plates were read in a MSD® plate reader within 2 hours.
(§15) Assays were accepted or rejected based upon specific performance criteria, including regression coefficient of standard curve, adequate signal to noise ratio, sample signals lying within the range of the standard curve, etc.: the specific parameters were established for each tissue type prior to performing an assay, and were included in the full analytical procedure.
(§16) Plate data from both assays (MTS and MSD® ELISA) were transferred into a Microsoft EXCEL® spreadsheet to determine the toxicity, and inhibition caused by the compounds. Standard curves of Aβ were generated using LSW™ toolbar Hill slope model 42, with 1/y weighting (general sigmoidal curve with Hill slope, a to d; y=(a−d)/(1+(x/c)̂b)+d). Inhibition data were expressed as a percent of the average of the Aβ values in the vehicle treated wells (all values are background subtracted), using LSW™ toolbar Hill Slope model 68 (ligand-receptor binding/sigmoidal, with Hill slope and Bmax to 0; y=Bmax*(1−(x̂n/(K̂n+x̂n))), after raw values were translated/transformed into absolute Aβ values utilizing the standard curve generated as described above (e.g. back calculate absolute Aβ values from the raw values utilizing standard curve). Onboard controls to verify assay performance were checked to assure that amyloid is within linear detection range of the assay, that cells were expressing correctly, and that the MSD itself was performing according to quality control (QC) standards.
(§17) % Inhibition>50% may be considered a positive response or an interesting result in this assay; EC50 determination were determined.
(§18) The beta amyloid inhibitory activity of compounds of formula (I) was determined using the MSD ECL assay. Inhibition of Notch processing was measured using the stable transfection reporter assay See, Table 1 below.

Aβ42 = experiment: Aβ-lowering MSD electrochemiluminescent assay of conditioned media from CHO cells expressing human APP (Aβ42); assay type: cell-based; conditions: MSD electrochemiluminescent assay, hAPP-REPNL751 CHO cells; read-out: Aβ42 EC50 for inhibition of Aβ42
Method: as §1, §2, §3, §4, §5, §6, §7, §8, §9, §10, §11, §12, §13, §14, §15, §16, §17, §18

Notch = experiment: Stable transfection Notch reporter assay (HES1-SEAP, P8H6 CHO-K1 cells); assay type: cell-based; conditions: CHO-K1; stable transfection Notch reporter assay, 48 hours; read-out: Notch EC50 for inhibition of Notch
From the text: A concern with compounds that lower beta amyloid synthesis by targeting the γ-secretase enzyme is that this enzyme also is involved in the cleavage of other substrates besides APP especially the Notch substrate. […] Thus, a selectivity of APP cleavage over Notch cleavage is desired in order to avoid G.I. side effects. The activity of compounds in cleaving Notch can be measured in a whole cell functional Notch assay. This is an assay to determine the effects of compounds on the S3 (γ-secretase like) processing of Notch. […] SEAP transactivation is then detected by luminescent assay. The assay consists of the following protocol:
• (i) Materials: The P8H6 inducible stable cell line was derived from T-REX™ CHO-K1, stably expressing Tet repressor, Notch (pZX1) and HES1-SEAP (pZX2) reporter constructs. A Wallac 1450 Victor™ Luminescence Counter was used to measure luminescent signal. All other materials and reagents were of highest quality available and were all from commercial sources.
(ii) Construct Description: • pZX1: Mouse Notch1 with deleted extracellular domain cloned at Hind III/Xho I sites of pcDNA5/TO vector: Ampicillin Resistance for bacteria, hygromycin resistance for cells. • pZX2: Mouse HES1 promoter together with reporter gene SEAP cloned at Not I/Apa I sites of pcDNA3.1 with deletion of CMV promoter.
(iii) Procedure: • 1. P8H6 cells were grown in Ham's F12 complete growth media containing 10% FBS (reduced tetracycline), 2 mM of L-glutamine, 1 mg/mL of hygromycin, 1 mg/mL of the GENETICIN® antibiotic, 10 μg/mL of Blasticidin and 1% Penicillin-Streptomycin were supplemented with doxycline with final induction concentration of 0.2 μg/mL. The cells were seeded in 96-well tissue culture plate at 8000/well. • 2. Test compounds in 0.2% DMSO/25 mM HEPES buffer were diluted at final working concentration of 20 μM, 6.7 μM, 2.2 μM, 741 nM, 247 nM, 82 nM, 27 nM, 9 nM and 3 nM. Diluted compounds then were added to P8H6 cells in 96-well tissue culture plates. For vehicle samples, the same volume of 0.2% DMSO/25 mM HEPES buffer was added. • 3. Cells were incubated at 37° C., 5% CO2 for 48 hours. • 4. SEAP levels in the conditioned media were assessed using the Clontech GREATESCAPE™ SEAP Chemiluminescence detection kit according to the manufacturer's instruction. Briefly, 15 μL of conditioned media were mixed with 45 μL of the dilution buffer and incubated at 65° C. for 45 minutes. After cooling, assay buffer was added and the sample was incubated with the CSPD® substrate. • 5. Luminescence was measured in a Wallac 1450 VICTOR™ luminescence counter.
EC50 was the compound concentration that was estimated to provide a 50% reduction of maximum response in Notch induced SEAP levels. An EC50 from a given assay may only be used for averaging if it has met the following criteria: • 1. There is a lower dose in the assay which gives a % Notch Activity>60% (bracketing lower dose). • 2. There is a higher dose in the assay which gives a % Notch Activity<30% (bracketing higher dose), and the maximum inhibition is reached (e.g., a given compound might achieve 80% inhibition (% Notch activity is about 20%) over several doses, and therefore 20% would be considered the maximum inhibition.
Data were analyzed in Microsoft EXCEL® format. EC50 was calculated by LSW using sigmoidal inhibition from B0 to nsb model (model 59). Each assay plate contained a dose response curve for the reference compound 5-chloro-N-[(1S,2R)-2-ethyl-4,4,4-trifluoro-1-(hydroxymethyl)butyl]thiophene-2-sulfonamide. This compound is discussed in International Patent Publication No. WO 2004/092155. The following data is not shown in that publication.
as §18

EC50 (Aβ40)	EC50 (Aβ42)	EC50 (Notch)	melting point	Compound
1.33 µM	1.9 µM	> 20 µM	129 to 131 °C	O=S(=O)(N[C@H](CO)[C@@H](c1ccccc1)C(F)(F)F)c1ccc(Cl)cc1 [Example 6, 4-Chloro-N-[(1S,2R)-3,3,3-trifluoro-1-(hydroxymethyl)-2-phenylpropyl]benzenesulfonamide]
1.88 µM	1.57 µM	> 20 µM		O=S(=O)(N[C@H](CO)[C@H](c1ccc(F)cc1)C(F)(F)F)c1ccc(Cl)s1 (relative stereo) [Example 10, 5-Chloro-N-[(1S*,2S*)-3,3,3-trifluoro-2-(4-fluorophenyl)-1-(hydroxymethyl)propyl]thiophene-2-sulfonamide]
0.098 µM	0.098 µM	1.74 µM		O=S(=O)(N[C@H](CO)[C@@H](c1cccc(F)c1)C(F)(F)F)c1ccc(Cl)s1 (relative stereo) [Example 12, 5-Chloro-N-[(1S*,2R*)-3,3,3-trifluoro-2-(3-fluorophenyl)-1-(hydroxymethyl)propyl]thiophene-2-sulfonamide]
